Laboratory results: patent US7253258B2, “Proline rich acidic protein and uses thereof” (National University of Singapore, priority 2003, dated 2007)
“And” between values parts separate entries of the source, which are not always exact repeats. Equal entries are not always repeated.

Columns and labels:
[1] = system: PRAP expression in HT29 cells; experiment: Real time RT-PCR of PRAP expression in HT29 cells treated with TSA, DAC or both; assay type: cell-based, human; details: HT29, 72 h, TSA (300 ng), DAC (1 μm); for PRAPcp-GAPDHcp: crossing point of PRAP normalized by GAPDH: untreated 12.63
Description: (§1) Sigma), trichostatin A (TSA, 300 nM; Sigma) or a combination of both drugs for 72 hours. For the combined treatment, cells were treated with 1 μM DAC for 24 h followed by the addition of 300 nM TSA for another 48 h. Total RNA was extracted using the […] (Qiagen). The experiment was performed in duplicates and the average result calculated. Primers for real-time PCR were designed using the LightCycler Probe Design Software, version 1.0 (Roche, France). […] Real-time PCR was performed on the LightCycler (Roche, France) using the LightCycler-RNA amplification Kit SYBR Green I (Roche, France). The specificity of the amplification was assessed by electrophoretic separation of the amplified products and melting curve analysis. […] The efficiencies of both amplifications were calculated according to the slope of the standard curves. Relative PRAP expression was quantified after normalisation with GAPDH.

[2] = system: PRAP expression in HCT116 cells; experiment: Real time RT-PCR of PRAP expression in HCT116 cells treated with TSA, DAC or both; assay type: cell-based, human; details: HCT116, 72 h, TSA (300 ng), DAC (1 μm); for PRAPcp-GAPDHcp: crossing point of PRAP normalized by GAPDH: untreated 13.97
Description: as §1

[3] = system: PRAP gene expression in HT29 cells; experiment: Northern blot of PRAP gene expression in butyrate-treated HT29 cells; assay type: cell-based, human; details: HT29, 5 mM butyrate
Description: The HT29, HCT116, HepG2 and HeLa cell lines were purchased from American Type Culture Collection (Manassas, Va.). HT29 and HCT116 cells were cultured in McCoy's 5A (Sigma Chemical Co., St. Louis, Mo.), HepG2 in DMEM and HeLa in RPMI, all supplemented with 10% fetal bovine serum (Life Technologies, Inc., Gaithersburg, Md.), at 37° C. in a 5% CO2 humidified atmosphere. Cells were treated with 5 mM sodium butyrate (final concentration in media; Life Technologies, Inc) or vehicle. Total RNA was prepared from the cells at the respective time points from three separate flasks.
In a separate experiment, total RNA from tissues and cell lines was prepared using the guanidinium thiocyanate method as previously described (MacDonald et al., 1987). 15 μg of RNA was separated by formaldehyde/agarose gel electrophoresis, transferred to nylon membrane (Qiabrane, Qiagen, Hilden, Germany), cross-linked (Stratalinker, Stratagene, La Jolla, Calif.), and hybridised to cDNA probes, as previously described (Wang et al., 1999). […] Relative mRNA levels were quantified by Typhoon phospho-imager (Amersham Bioscience, UK) and normalised against 18S levels. Normal/Tumour (N/T) ratios were obtained by dividing the normalised relative densitometric units of the normal mucosa by tumour.

[4] = system: PRAP expression in HT29 cells; experiment: Western blot of PRAP expression in HT29 cells at different butyrate concentrations; assay type: cell-based, human
Excerpt: Cells or tissues were extracted with RIPA buffer (1×PBS, 1% Nonidet P-40, 0.5% sodium deoxychelate and 0.1% SDS. Protease inhibitors: PMSF, aprotinin, pepstatin A and leupeptin were freshly added to the RIPA buffer at the point of usage). […] The secondary antibody was either HRP-conjugated anti-rabbit IgG (BioRad, Hercules, Calif., 1:10,000) or HRP-conjugated anti-mouse antibody (Santa Cruz Biotechnology, Santa Cruz, Calif., 1:20,000). The proteins were visualized using the SuperSignal® West Dura Extended (Pierce) chemiluminescent substrate and exposed to an autoradiograph film.

HeLa cells [5] = experiment: Cell numbers after transfection (overexpression) in HeLa cells, haemocytometer count after Trypan Blue; assay type: cell-based, human; details: 72 h after transfection
Description: The cDNA fragment was cloned into pcDNA 3.1. All plasmids were sequenced to confirm identity and exclude mutations. The plasmids were transfected into HepG2 and HeLa cells using Lipofectamine (Invitrogen), according to manufacturer's recommendations. Each experiment was performed in quadruplicates and repeated three times. After 72 h, the cells were harvested and counted by a haemocytometer after Trypan Blue staining. Whole cell extracts were prepared for Western blot analysis as described.

HeLa cells [6] = system: HeLa cells
Description: (§2) Cells were subjected to selection in 1200 μg/ml G418 and the number of colonies scored manually at the end of 3 weeks.

HT29 cells = details: HT29 stable clones, MTT, p<0.01
Description: as §2
The colorimetric MTT (3-(4,5-dimethylthiazol-2yl)-2,5-diphenyl-tetrazolium bromide; Sigma) assay was used as a surrogate measure of cell number at various time points. The experiment was performed in replicates of six and repeated twice.

Molecule	Fold of increase of PRAP expression relative to untreated HT29 [1] [fold]	PRAPcp-GAPDHcp: crossing point of PRAP normalized by GAPDH [1]	PRAPcp-GAPDHcp: crossing point of PRAP normalized by GAPDH [2]	Reduction in cell numbers compared to vector-transfected controls (HeLa cells [5])	other results
Nc1ncn([C@H]2C[C@H](O)[C@@H](CO)O2)c(=O)n1 [DAC, 5-aza-2′ deoxycytidine]	8.5	9.37	13.8	–	–
CCCC(=O)[O-].[Na+] [butyrate, sodium butyrate]	–	–	–	–	PRAP gene expression versus control non-treated cells ([3]; 6 days after treatment): 29 fold; Increase of PRAP gene expression ([3]; within 24 h): 20 fold; Butyrate concentration giving maximal PRAP expression [4]: 2 to 5 mM
CC(/C=C/C(=O)NO)=C\[C@@H](C)C(=O)c1ccc(N(C)C)cc1 [TSA, trichostatin A]	8.4	9.38	11.6	–	Fold of increase of PRAP expression relative to untreated HCT116 [2]: 5.2 fold and 5.17 fold
Proline-rich acidic protein [PRAP]	–	–	–	55%	Size of colonies compared to controls (HeLa cells [6]; 3 weeks selection in 1200 μg/ml G418): reduction in the size; Reduction in the number of colonies (HeLa cells [6]; 3 weeks selection in 1200 μg/ml G418, versus vector): 50%; Rate of cell growth of stably transfected clones versus vector controls (HT29 cells): significantly lower rate of cell growth
PRAP/-SP: truncated PRAP without signal peptide, amino acid 21 to 151 (protein) VPAPKVPIKMQVKHWPSEQDPEKAWGARVVEPPEKDDQLVVLFPVQKPKLLTTEEKPRGQGRGPILPGTKAWMETEDTLGRVLSPEPDHDSLYHPPPEEDQGEERPRLWVMPNHQVLLGPEEDQDHIYHPQ	–	–	–	did not result in a reduction in cell numbers	–
